In ChEMBL document CHEMBL1933046, “Synthesis and antibacterial activity of a novel series of acylides active against community acquired respiratory pathogens” (2012):
In brackets after ≈: the same amount, converted by molar mass.

Key:
Type in all cases: functional
Streptococcus pneumoniae [1] = experiment: Antibacterial activity against Streptococcus pneumoniae 49619 by NCCLS method
Streptococcus pyogenes = experiment: Antibacterial activity against Streptococcus pyogenes 19615 by NCCLS method
Haemophilus influenzae = experiment: Antibacterial activity against Haemophilus influenzae 38 by NCCLS method
Moraxella catarrhalis = experiment: Antibacterial activity against Moraxella catarrhalis 8176 by NCCLS method
Streptococcus pneumoniae [2] = experiment: Antibacterial activity against Streptococcus pneumoniae 3579 expressing erm gene by NCCLS method
Streptococcus pneumoniae [3] = experiment: Antibacterial activity against Streptococcus pneumoniae 6303 by NCCLS method
Streptococcus pneumoniae [4] = experiment: Antibacterial activity against Streptococcus pneumoniae 994 expressing mef gene by NCCLS method

| MIC (Streptococcus pneumoniae [1]) [µg/mL] | MIC (Streptococcus pyogenes) [µg/mL] | MIC (Haemophilus influenzae) [µg/mL] | MIC (Moraxella catarrhalis) [µg/mL] | MIC (Streptococcus pneumoniae [2]) [µg/mL] | MIC (Streptococcus pneumoniae [3]) [µg/mL] | MIC (Streptococcus pneumoniae [4]) [µg/mL] | Compound |
| --- | --- | --- | --- | --- | --- | --- | --- |
| 0.06 (≈ 0.0643 µM) | 0.125 (≈ 0.134 µM) | < 0.06 | 0.125 (≈ 0.134 µM) | 0.5 (≈ 0.536 µM) | 0.125 (≈ 0.134 µM) | 0.5 (≈ 0.536 µM) | C=CCN(C)[C@H]1C[C@@H](C)O[C@@H](O[C@@H]2[C@@H](C)[C@H](OC(=O)Cc3ccccn3)[C@@H](C)C(=O)O[C@H](CC)[C@@]3(C)OC(=O)N(CCCCn4cnc5cccnc54)[C@@H]3[C@@H](C)C(=O)[C@H](C)C[C@@]2(C)OC)[C@@H]1O |
| 0.03 (≈ 0.0308 µM) | 0.03 (≈ 0.0308 µM) | < 0.06 | 0.125 (≈ 0.128 µM) | 0.125 (≈ 0.128 µM) | 0.03 (≈ 0.0308 µM) | 0.06 (≈ 0.0617 µM) | C=CCN(C)[C@H]1C[C@@H](C)O[C@@H](O[C@@H]2[C@@H](C)[C@H](OC(=O)Cc3ccccn3)[C@@H](C)C(=O)O[C@H](CC)[C@@]3(C)OC(=O)N(CCCCn4cnc(-c5cccc(N)c5)c4)[C@@H]3[C@@H](C)C(=O)[C@H](C)C[C@@]2(C)OC)[C@@H]1O |
| 0.06 (≈ 0.0624 µM) | 0.03 (≈ 0.0312 µM) | 0.125 (≈ 0.13 µM) | 0.125 (≈ 0.13 µM) | 0.25 (≈ 0.26 µM) | 0.06 (≈ 0.0624 µM) | 0.125 (≈ 0.13 µM) | CC[C@H]1OC(=O)[C@H](C)[C@@H](OC(=O)Cc2cccnc2)[C@H](C)[C@@H](O[C@@H]2O[C@H](C)C[C@H](N(C)CC)[C@H]2O)[C@](C)(OC)C[C@@H](C)C(=O)[C@H](C)[C@H]2N(CCCCn3cnc(-c4ccc(N)nc4)c3)C(=O)O[C@]12C |
| 0.03 (≈ 0.0321 µM) | 0.03 (≈ 0.0321 µM) | < 0.06 | 0.06 (≈ 0.0643 µM) | 0.25 (≈ 0.268 µM) | 0.06 (≈ 0.0643 µM) | 0.25 (≈ 0.268 µM) | C=CCN(C)[C@H]1C[C@@H](C)O[C@@H](O[C@@H]2[C@@H](C)[C@H](OC(=O)Cc3ccccn3)[C@@H](C)C(=O)O[C@H](CC)[C@@]3(C)OC(=O)N(CCCCn4cnc5cnccc54)[C@@H]3[C@@H](C)C(=O)[C@H](C)C[C@@]2(C)OC)[C@@H]1O |
| 0.06 (≈ 0.0642 µM) | 0.06 (≈ 0.0642 µM) | < 0.06 | 0.125 (≈ 0.134 µM) | 0.25 (≈ 0.268 µM) | 0.06 (≈ 0.0642 µM) | 0.125 (≈ 0.134 µM) | C=CCN(C)[C@H]1C[C@@H](C)O[C@@H](O[C@@H]2[C@@H](C)[C@H](OC(=O)Cc3ccccn3)[C@@H](C)C(=O)O[C@H](CC)[C@@]3(C)OC(=O)N(CCCCn4cnc5cncnc54)[C@@H]3[C@@H](C)C(=O)[C@H](C)C[C@@]2(C)OC)[C@@H]1O |
| 0.06 (≈ 0.0632 µM) | 0.03 (≈ 0.0316 µM) | 0.125 (≈ 0.132 µM) | 0.125 (≈ 0.132 µM) | 0.5 (≈ 0.527 µM) | 0.125 (≈ 0.132 µM) | 0.125 (≈ 0.132 µM) | C=CCN(C)[C@H]1C[C@@H](C)O[C@@H](O[C@@H]2[C@@H](C)[C@H](OC(=O)Cc3ccccn3)[C@@H](C)C(=O)O[C@H](CC)[C@@]3(C)OC(=O)N(CCCCn4cnc5c(N)ncnc54)[C@@H]3[C@@H](C)C(=O)[C@H](C)C[C@@]2(C)OC)[C@@H]1O |
| 0.015 (≈ 0.0158 µM) | 0.06 (≈ 0.0633 µM) | 0.25 (≈ 0.264 µM) | 0.125 (≈ 0.132 µM) | 0.125 (≈ 0.132 µM) | 0.06 (≈ 0.0633 µM) | 0.125 (≈ 0.132 µM) | C=CCN(C)[C@H]1C[C@@H](C)O[C@@H](O[C@@H]2[C@@H](C)[C@H](OC(=O)Cc3ccccn3)[C@@H](C)C(=O)O[C@H](CC)[C@@]3(C)OC(=O)N(CCCCn4cnc(-c5ccoc5)c4)[C@@H]3[C@@H](C)C(=O)[C@H](C)C[C@@]2(C)OC)[C@@H]1O |
| 0.03 (≈ 0.0313 µM) | 0.03 (≈ 0.0313 µM) | < 0.06 | 0.25 (≈ 0.261 µM) | 0.5 (≈ 0.522 µM) | 0.06 (≈ 0.0626 µM) | 0.25 (≈ 0.261 µM) | C=CCN(C)[C@H]1C[C@@H](C)O[C@@H](O[C@@H]2[C@@H](C)[C@H](OC(=O)Cc3ccccn3)[C@@H](C)C(=O)O[C@H](CC)[C@@]3(C)OC(=O)N(CCCCn4cnc(-c5ccccc5)c4)[C@@H]3[C@@H](C)C(=O)[C@H](C)C[C@@]2(C)OC)[C@@H]1O |
| 0.03 (≈ 0.0313 µM) | 0.06 (≈ 0.0626 µM) | 0.125 (≈ 0.13 µM) | 0.25 (≈ 0.261 µM) | 1 (≈ 1.04 µM) | 0.03 (≈ 0.0313 µM) | 0.125 (≈ 0.13 µM) | C=CCN(C)[C@H]1C[C@@H](C)O[C@@H](O[C@@H]2[C@@H](C)[C@H](OC(=O)Cc3cccnc3)[C@@H](C)C(=O)O[C@H](CC)[C@@]3(C)OC(=O)N(CCCCn4cnc(-c5cccnc5)c4)[C@@H]3[C@@H](C)C(=O)[C@H](C)C[C@@]2(C)OC)[C@@H]1O |
| 0.06 (≈ 0.0644 µM) | 0.03 (≈ 0.0322 µM) | < 0.03 | 0.06 (≈ 0.0644 µM) | 8 (≈ 8.58 µM) | 0.06 (≈ 0.0644 µM) | 0.25 (≈ 0.268 µM) | C=CCN(C)[C@H]1C[C@@H](C)O[C@@H](O[C@@H]2[C@@H](C)[C@H](OC(=O)Cc3cccnc3)[C@@H](C)C(=O)O[C@H](CC)[C@@]3(C)OC(=O)N(CCCCn4ccc5cccnc54)[C@@H]3[C@@H](C)C(=O)[C@H](C)C[C@@]2(C)OC)[C@@H]1O |

| Compound | MIC (Streptococcus pneumoniae [1]) [µg/mL] | MIC (Streptococcus pyogenes) [µg/mL] | MIC (Haemophilus influenzae) [µg/mL] | MIC (Moraxella catarrhalis) [µg/mL] | MIC (Streptococcus pneumoniae [2]) [µg/mL] | MIC (Streptococcus pneumoniae [3]) [µg/mL] | MIC (Streptococcus pneumoniae [4]) [µg/mL] |
| --- | --- | --- | --- | --- | --- | --- | --- |
| CC[C@H]1OC(=O)[C@H](C)[C@@H](O[C@H]2C[C@@](C)(OC)[C@@H](O)[C@H](C)O2)[C@H](C)[C@@H](O[C@@H]2O[C@H](C)C[C@H](N(C)C)[C@H]2O)[C@](C)(O)C[C@@H](C)CN(C)[C@H](C)[C@@H](O)[C@]1(C)O [AZITHROMYCIN] | 0.25 (≈ 0.334 µM) | 0.25 (≈ 0.334 µM) | > 16 | 16 (≈ 21.4 µM) | 16 (≈ 21.4 µM) | 0.25 (≈ 0.334 µM) | 1 (≈ 1.34 µM) |
